Data set [1] deals with trypsin. The data set can be described thus: EnzChek protease assay: trypsin inhibition by mixtures of talc with divalent cation salts. The data set is classed as biochemical. The conditions noted are these: for Hypothetically calculated additive value of salt and Talc, trypsin inhibition activities (%): Table 3, salt alone plus talc alone (8.55%). The procedure: The objective of the following experiment was to determine whether and to what extent adding a divalent cation to talc inhibited trypsin activity in an in vitro assay. The inhibition of trypsin-induced cleavage of a fluorescent casein peptide was measured using the EnzChek™ protease assay kit, following manufacturer's instructions (EnzChek™ Protease Assay Kits Product Information, Revised; Molecular Probes, Eugene Oreg.). […] Trypsin working solution (Sigma, St. Louis, Mo., unit/mL) was prepared in digestion buffer provided in the assay kit. Stock solution of BODIPY FL casein (trypsin substrate, mg/mL) was prepared by adding 0.2 mL to the substrate vials (provided in kit), and the final substrate working solution (10 microgram/mL) was prepared by dilution in digestion buffer (pH 7.8). Following incubation of the trypsin, with or without the test materials, with the BODIPY fluorescent casein substrate, at room temperature for one hour, fluorescence was measured (excitation 485 nm/emission 530 nm) using a SpectraMax microtiter plate reader (Molecular Devices Corporation, Sunnyvale, Calif.) and Softmax Pro software (Molecular Devices Corporation). Each experiment was performed in three replicates.

For data set [2], the system named is trypsin. Put plainly: EnzChek protease assay: trypsin inhibition by zinc oxide/acid mixtures and formulations. The data set is classed as biochemical. Particulars: text b137, on Table 5. The method, then: Each experiment was performed in three replicates.
For preparations, samples were diluted in 1×PBS at 1:10 ratio and subjected to centrifugation at 13,200 rpm for 1 min using Eppendorf Centrifuge (Model 5415D, Eppendorf AG, Hamburg, Germany) to remove the solid formulation ingredients. The supernatants (50 μl) were used for trypsin inhibitory activity analyses as described above. For preparations, samples were diluted in 10, or 20 or 40% ethanol and subjected to centrifugation at 13,200 rpm for 1 min using Eppendorf Centrifuge (Model 5415D, Eppendorf AG, Hamburg, Germany) to remove the solid formulation ingredients. The supernatants (50 μl) were used for trypsin inhibition assay. Possible effects of ethanol solution (10, 20 or 40% ethanol) on trypsin inhibition activity were tested in the same study and found no significant impact.
For the above study, the results are an average of three independent experiments, wherein the samples, which were diluted at 1:10 ratio in 1×PBS solutions containing 10%, 20% or 40% ethanol, were tested in triplicates. The results are from an average of all conditions at the same dilution.
For the currently available product (i.e., Baby Paste 5.0, Mendelson Pharmaceuticals LLC, Mountainside, N.J.), the results are an average of a single study: sample diluted at 1:10 ratio, in 1×PBS solutions containing 10%, 20% or 40% ethanol, was tested in triplicate. […]

How the values of data set [3] were obtained: The objective of the following experiment was to determine whether and to what extent adding an acid to a formulation containing zinc oxide had on inhibition of trypsin activity in an in vitro assay. The inhibition of trypsin-induced cleavage of a fluorescent casein peptide was measured using the EnzChek™ protease assay kit, following manufacturer's instructions (EnzChek™ Protease Assay Kits Product Information, Revised; Molecular Probes, Eugene Oreg.). Briefly, mixtures of zinc oxide and acid at different concentrations were prepared in 1×PBS (pH 7.4) and their pH was recorded as listed in the Tables 5-8. Trypsin working solution (Sigma, St. Louis, Mo., unit/mL) was prepared in digestion buffer provided in the assay kit. Stock solution of BODIPY FL casein (trypsin substrate, mg/mL) was prepared by adding 0.2 mL to the substrate vials (provided in kit), and the final substrate working solution (10 microgram/mL) was prepared by dilution in digestion buffer (pH 7.8). Following incubation of the trypsin, with or without the test materials (50 μl), with the BODIPY fluorescent casein substrate, at room temperature for one hour, fluorescence was measured (excitation 485 nm/emission 530 nm) using a SpectraMax microtiter plate reader (Molecular Devices Corporation, Sunnyvale, Calif.) and Softmax Pro software (Molecular Devices Corporation). Each experiment was performed in three replicates.

Structures are written as SMILES. Read-outs that look alike come from different tables or passages of the source.

Turning to `CC(=O)[O-].CC(=O)[O-].O.[Ca+2]` [Calcium acetate monohydrate], the “Hypothetically calculated additive value of salt and Talc, trypsin inhibition activities (%)” value in data set [1] was 23.86%. Same read-out and setting: next, `[Ca+2].[Cl-].[Cl-]` [Calcium chloride]: 26.50%; `O.O.O.O.[Cl][Fe][Cl]` [Iron (II) chloride tetrahydrate]: 73.62%.

Take `CC(=O)[O-].CC(=O)[O-].O.O.O.O.[Mg+2]` [Magnesium acetate tetrahydrate]: in data set [1], the “Hypothetically calculated additive value of salt and Talc, trypsin inhibition activities (%)” value is 9.38%. As to `[Cl-].[Cl-].[Mg+2]` [Magnesium chloride], in data set [1], the “trypsin inhibitory activity, alone, in words” value is on record as “moderate to low levels”; the “Hypothetically calculated additive value of salt and Talc, trypsin inhibition activities (%)” value was 13.30%.

For `CC(=O)[O-].CC(=O)[O-].[Zn+2]` [Zinc acetate dihydrate], the “Hypothetically calculated additive value of salt and Talc, trypsin inhibition activities (%)” value in data set [1] is reported as 71.39%. Still for that read-out and setting: next, `[Cl-].[Cl-].[Zn+2]` [Zinc chloride]: 89.62%. Consider `[O]=[Zn]` [ZnO, zinc oxide], for which the “protease activity of zinc oxide, in words” value in data set [2] was “minimal protease activity”. In addition, the pH in data set [3] (0.1% ZnO, 0.01% acetic acid in 1x PBS) turned out to be 7.28; in data set [3] (0.1% ZnO, 0.05% acetic acid in 1x PBS), 6.03; in data set [3] (0.1% ZnO, No acetic acid in 1x PBS), 7.61; in data set [3] (1% ZnO, 0.01% acetic acid in 1x PBS), 7.85; in data set [3] (1% ZnO, 0.05% acetic acid in 1x PBS) it was 6.08; in data set [3] (1% ZnO, No acetic acid in 1x PBS) it was 8.07.

In the case of `CC(=O)O` [acetic acid], the pH in data set [3] (No ZnO, 0.01% acetic acid in 1x PBS) is listed as 6.84; in data set [3] (No ZnO, 0.05% acetic acid in 1x PBS) it was 4.75.

The record behind these values is patent publication US20130004590A1, “ZINC OXIDE/ACID CONTAINING COMPOSITIONS AND METHODS FOR TREATING AND/OR PREVENTING ENZYMATIC IRRITATION” (priority 2011, published 2013).
